Earlier results in patent US20050232957A1, “Compositions and methods for moisturizing skin” (priority 2004, published 2005).

Conditions: person, one month after starting treatment

For `CS(=O)(=O)c1ccc(C2=C(c3ccccc3)C(=O)OC2)cc1` [rofecoxib], the “aquagenic wrinkling of the palms (AWP)” value is given as “developed AWP”.
